This note sets out measurements from patent publication US4552882A, “7-(1-Pyrrolyl) derivatives of 1-ethyl-1,4-dihydro-4-oxoquinoline-3-carboxylic acids and 1-ethyl-1,4-dihydro-4-oxo-1,8-naphthyridine-3-carboxylic acids and their use as antimicrobial agents” (Provesan, SA, priority 1983, dated 1985).

For test [1], the system named is enterobacteriaceae (Pseudomonas aeruginosa). Kind of test: in vitro antimicrobial activity compared to pipemidic acid. It counts as cell-based. The protocol:
(§1) (G. L. Daquet and Y. A. Chabbect, Techniques en bacteriologie (Bacteriological techniques), vol. 3, Flammarion Medecine Sciences, Paris, 1972 and W. B. Hugo and A. D. Rusell, Pharmaceutical Microbiology, Blackwell Scientific Publications, London, (1977)).
(§2) Antibiotic medium no. 1 (seed agar) (Oxoid CM 327)
(§3) Tryptone-soya broth (Oxoid CM 129)
(§4) Ringer's physiological solution 1/4 (oxoid BR 52) Dextrose agar (BBL-11165) 0.1 N NaOH
(§5) Each of the microorganisms is seeded by streaking in tubes of Antibiotic medium No. 1 (seed agar), which are then incubated at 37° C. for 20 hours. Using a culture loop, the cultures are then seeded in tryptone-soyabroth and incubated at 37° C. for 20 hours. The culture obtained is diluted to 1/4 with Ringer's physiological solution, so as to obtain a standardized suspension of 10^7 -10^9 cfu/ml for each organism.
(§6) Starting from a solution of 1,000 μg/ml in 0.1 N NaOH, each product is diluted in Dextrose agar (previously melted and maintained at 50° C.), with successive dilutions so as to obtain the following concentrations: 64--32--16--8--4--2--1--0.5--0.25--0.125 μg of derivative/ml medium.
(§7) For each product, the solution of each concentration is subsequently distributed into Petri dishes 10 cm in diameter, with 10 ml of medium per dish and the same number of dishes as microorganisms to be tested.
(§8) As soon as the medium has cooled, the dishes are seeded with the inoculations using 0.4 ml of inoculation per dish. They are spread with a Driglasky loop and the supernatant is removed. The seeded dishes are incubated at 37° C. for 20 hours.

A further test concerns gram-positive cocci. The description is as above. The test is classed as cell-based. How it is done: as §1, §2, §3, §4, §5, §6, §7, §8
Test [2] concerns Serratia marcescens ATCC 13880. In words: MIC in vitro. As to conditions: ATCC13880, Dextrose agar, 37° C., 20 hours. The test is classed as cell-based. The protocol: (§9) (G. L. Daquet and Y. A. Chabbect, Techniques en bacteriologie (Bacteriological techniques), vol. 3, Flammarion Medecine Sciences, Paris, 1972 and W. B. Hugo and A. D. Rusell, Pharmaceutical Microbiology, Blackwell Scientific Publications, London, (1977)). Antibiotic medium no. 1 (seed agar) (Oxoid CM 327) Tryptone-soya broth (Oxoid CM 129) Ringer's physiological solution 1/4 (oxoid BR 52) Dextrose agar (BBL-11165) 0.1 N NaOH "Serratia marcescens" ATCC 13880 Each of the microorganisms is seeded by streaking in tubes of Antibiotic medium No. 1 (seed agar), which are then incubated at 37° C. for 20 hours. Using a culture loop, the cultures are then seeded in tryptone-soyabroth and incubated at 37° C. for 20 hours. The culture obtained is diluted to 1/4 with Ringer's physiological solution, so as to obtain a standardized suspension of 10^7 -10^9 cfu/ml for each organism. Starting from a solution of 1,000 μg/ml in 0.1 N NaOH, each product is diluted in Dextrose agar (previously melted and maintained at 50° C.), with successive dilutions so as to obtain the following concentrations: 64--32--16--8--4--2--1--0.5--0.25--0.125 μg of derivative/ml medium. For each product, the solution of each concentration is subsequently distributed into Petri dishes 10 cm in diameter, with 10 ml of medium per dish and the same number of dishes as microorganisms to be tested. As soon as the medium has cooled, the dishes are seeded with the inoculations using 0.4 ml of inoculation per dish. They are spread with a Driglasky loop and the supernatant is removed. The seeded dishes are incubated at 37° C. for 20 hours.

In test [3] the test system is Salmonella typhimurius AMES 100. Kind of test: MIC in vitro. It counts as cell-based, Salmonella typhimurium. The note with it: AMES100, Dextrose agar, 37° C., 20 hours. The protocol: as §1, §2, §3, §4
"Salmonella typhimurium" AMES 100
as §5, §6, §7, §8

The subject of test [4] is Enterobacter cloacae CHSP 20. In words: MIC in vitro. It counts as cell-based. The note with it: CHSP20, Dextrose agar, 37° C., 20 hours. How it is done:
as §9, with “"Enterobacter cloacae" CHSP 20” for “"Serratia marcescens" ATCC 13880”

The term MIC denotes the smallest concentration in the dilution series that meets the test's criterion for growth inhibition. A lower MIC goes with greater potency.

≈ marks a conversion by molar mass, not a printed value.

For `CCn1cc(C(=O)O)c(=O)c2ccc(-n3cccc3)cc21` [Example 1, 7-(1-pyrrolyl)-1-ethyl-1,4-dihydro-4-oxo-3-quinolinecarboxylic acid], the “"in vitro" activity compared to pipemidic acid” value (in test [1]; in the test on gram-positive cocci) was “greater than that of pipemidic acid” in each case. Moreover, the figures for the MIC in test [2], in test [3] and in test [4] were 8 µg/mL (≈ 28.3 µM), 4 µg/mL (≈ 14.2 µM) and 16 µg/mL (≈ 56.7 µM), respectively.
Take `CCn1cc(C(=O)O)c(=O)c2ccc(-n3cccc3)nc21` [Example 3, 1-ethyl-1,4-dihydro-4-oxo-7-(1-pyrrolyl)-1,8-naphthyridine-3-carboxylic acid]: the “"in vitro" activity compared to pipemidic acid” value in the test on gram-positive cocci is listed as “a greater activity”. Moreover, the MIC in test [2] came out at 16 µg/mL (≈ 56.5 µM); in test [3] it was 8 µg/mL (≈ 28.2 µM); in test [4], 8 µg/mL (≈ 28.2 µM).
`CCn1cc(C(=O)O)c(=O)c2cc(F)c(-n3cccc3)nc21` [Example 4, 1-ethyl-1,4-dihydro-4-oxo-6-fluoro-7-(1-pyrrolyl)-1,8-naphthyridine-3-carboxylic acid]: the “"in vitro" activity compared to pipemidic acid” value (in test [1]; with gram-positive cocci) was “greater than that of pipemidic acid” in each case. Besides, the MIC came to 2 µg/mL (≈ 6.64 µM) in test [2], 0.5 µg/mL (≈ 1.66 µM) in test [3] and 2 µg/mL (≈ 6.64 µM) in test [4].
`CCn1cc(C(=O)O)c(=O)c2cc(F)c(-n3cccc3)cc21` [Example 2, 6-fluoro-7-(1-pyrrolyl)-1-ethyl-1,4-dihydro-4-oxo-3-quinolinecarboxylic acid]: the “"in vitro" activity compared to pipemidic acid” value (in test [1]; in the test on gram-positive cocci) was “greater than that of pipemidic acid” each time. The MIC in test [2] came to 2 µg/mL (≈ 6.66 µM); in test [3], 0.5 µg/mL (≈ 1.67 µM); in test [4], 1 µg/mL (≈ 3.33 µM).
As to `CCn1cc(C(=O)O)c(=O)c2cnc(N3CCNCC3)nc21` [Pipemidic acid, reference compound], the MIC in test [2] is 16 µg/mL (≈ 52.7 µM); in test [3] it was 8 µg/mL (≈ 26.4 µM); in test [4], 8 µg/mL (≈ 26.4 µM).
